Data: ChEMBL document CHEMBL1817618, “Synthesis and evaluation of dual site inhibitors of 3-deoxy-D-arabino-heptulosonate 7-phosphate synthase” (Bioorg Med Chem Lett, 2011)

Key:
[1] = molecular target: T1, Phospho-2-dehydro-3-deoxyheptonate aldolase (Escherichia coli, UniProt C3TIE2); assay: Inhibition of recombinant Escherichia coli DAH7P synthase
[2] = molecular target: T1, Phospho-2-dehydro-3-deoxyheptonate aldolase; assay: Competitive inhibition of recombinant Escherichia coli DAH7P synthase using PEP as substrate by Michaelis-Menten equation analysis using UV-visible spectrophotometry

T1 sequence (C3TIE2 whole entry): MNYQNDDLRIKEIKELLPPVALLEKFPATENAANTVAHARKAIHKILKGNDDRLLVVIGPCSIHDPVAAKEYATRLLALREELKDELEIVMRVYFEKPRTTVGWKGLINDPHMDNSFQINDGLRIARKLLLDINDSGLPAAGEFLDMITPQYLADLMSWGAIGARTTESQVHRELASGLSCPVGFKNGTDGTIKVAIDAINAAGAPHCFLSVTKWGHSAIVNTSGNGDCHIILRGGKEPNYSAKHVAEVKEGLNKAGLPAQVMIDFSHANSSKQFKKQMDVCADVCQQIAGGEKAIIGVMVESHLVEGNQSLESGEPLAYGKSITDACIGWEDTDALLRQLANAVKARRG

| Ki [2] [µM] | SMILES | Ki [1] [µM] |
| --- | --- | --- |
| 3.6 | O=C(O)/C(=C/P(=O)(O)O)CCCCCBr |  |
| 5.3 | O=C(O)C(=CP(=O)(O)O)CCCCCOP(=O)(O)O (mixture of isomers) |  |

Second part, the compound before the results:

| SMILES | Ki [2] [µM] | Ki [1] [µM] |
| --- | --- | --- |
| C=C(CP(=O)(O)O)C(=O)O |  | 270 |
| C/C(=C\P(=O)(O)O)C(=O)O |  | 4.7 |
| O=C(O)C(=CCCCCOP(=O)(O)O)CP(=O)(O)O (mixture of isomers) | 154 |  |
